The source of these data is patent US20160102067A1, “OXIRAN AMINES” (V-BIOTEK HOLDING APS, priority 2012, published 2016).

One assay has as its system P. falciparum. Kind of assay: [3H]-hypoxanthine incorporation, growth rate of P. falciparum (Example 7). The assay is classed as cell-based, Plasmodium falciparum. The following applies: [3H]-hypoxanthine incorporation after 48 hrs, 3 fold dilution series, FIG. 15. As for the experimental part: 15.3 mg 2-Methyl-3-nonyloxiran-2-amine obtained in example 6 was mixed with 100 μl DMSO (Dimethyl sulfoxid) to obtain a stock solution. A first solution was prepared by mixing 100 uL of the stock solution with 400 uL of parasite media. Subsequently this solution was diluted in 15 dilution series, each dilution serie being diluted 3 fold. The same protecol as used in example 6 was applied for this experiment.
Specifically, the incorporation of [3H]-hypoxanthine was used as a measure for the life conditions of P. falciparum. Parasites were syncronised to ring stages by […] treatment and then incubated at 0.3% parasitemia at 5% haematocrit in 100 uL of growth medium containing [3H]-hypoxanthine over one cycle of replication, i.e. 48 hrs. Each experiment was performed in triplets.

The subject of assay [1] is MRSA (meticillin-resistant staphylococcus aureusis). Kind of assay: MIC determination for MRSA. The following applies: Staphylococcus aureus, dilution series, read-out: MIC (Minimum Inhibitory Concentration). The format is cell-based. Here is the method: (§1) 15.3 mg 2-Methyl-3-nonyloxiran-2-amine obtained in example 6 was mixed with 100 μl DMSO (Dimethyl sulfoxid) to obtain a stock solution. The stock solution was used for determining the MIC (Minimum Inhibitory Concentration) for MRSA (meticillin-resistant staphylococcus aureusis) and MSSA (meticillin-sensitive staphylococcus aureusis).

Assay [2] relates to MSSA (meticillin-sensitive staphylococcus aureusis). The assay can be described thus: MIC determination for MSSA. The assay is classed as cell-based. The following applies: Staphylococcus aureus, dilution series, read-out: MIC (Minimum Inhibitory Concentration). As for the experimental part: as §1
For assay [3], the system named is erythrocytic stages of P. falciparum. The assay can be described thus: [3H]-hypoxanthine incorporation assay with extract, P. falciparum strain K1. The format is cell-based, Plasmodium falciparum. The following applies: extract at a dilution of 160 times. As for the experimental part:
In vitro activity of extract dilutions were tested against erythrocytic stages of P. falciparum by a modified [3H]-hypoxanthine incorporation assay (Scala, F., Fattorusso, E., Menna, M., Taglialatela-Scafati, O., Tiemey, M., Kaiser, M., Tasdemir, D., 2010. Bromopyrrole alkaloids as lead compounds against protozoan parasites. Marine Drugs 8, 2162-2174.) using the […] strain K1. The standard drug used as a positive control was amodiaquine.
Briefly, parasite cultures incubated in RPMI 1640 medium with 5% Albumax (without hypoxanthine) were exposed to serial extract dilutions in microtiter plates. After 48 h of incubation at 37 ° C. in a reduced oxygen atmosphere, 0.5 μCi 3H-hypoxanthine was added to each well. Cultures were incubated for a further 24 h before they were harvested onto glass-fiber filters and washed with distilled water. The radioactivity was counted using a Betaplate™ liquid scintillation counter (Wallac, Zurich, Switzerland). The results were recorded as counts per minute (CPM) per well at each drug concentration and expressed as percentage of the untreated controls. IC50 values were calculated from graphically plotted dose-response curves. Each IC50 value obtained is the mean of at least two separate experiments performed in duplicate (the variation is maximum 20%).

Values after ≈ are worked out from the molar mass of the structure shown.

`CCCCCCCCCC1OC1(C)N` (stereo not shown) [2-Methyl-3-nonyloxiran-2-amine]: the “growth rate of P. Falciparum” value in the assay with P. falciparum is listed as “concentration dependent inhibition”. In addition, the MIC in assay [1] stood at 38.3 mg/mL (≈ 192 mM); in assay [2], 9.6 mg/mL (≈ 48.2 mM).
Take `CCN(CC)Cc1cc(Nc2ccnc3cc(Cl)ccc23)ccc1O` [amodiaquine]: the “[3H]-hypoxanthine incorporation value” in assay [3] turned out to be 47.5 CPM.
